{"source": "patent US10201564B2", "about": "“Methods of using inhaled nitric oxide gas for treatment of acute respiratory distress syndrome in children” (Mallinckrodt Hospital Products IP Limited, priority 2014, dated 2019)", "key": {"[1]": {"test_system": "pediatric subjects with acute hypoxemic respiratory failure (AHRF)", "test": "Pediatric AHRF study: respiratory values (oxygen status, HFOV, CMV, ABG)", "assay_type": "in vivo, human", "conditions": "5 ppm", "description": "(§1) Standardized ventilatory management and weaning procedures were used. Ventilatory management was used based on an “open lung approach” using positive end-expiratory pressure (PEEP) to increase lung volume and limiting tidal volumes to reduce plateau pressures. Subjects received nitric oxide for inhalation at 5 ppm or placebo (100% Grade 5 nitrogen gas) into the inspiratory limb of the ventilator circuit using a blinded version of the INOvent® delivery system. The subjects were treated until Day 28 or extubation, whichever occurred first. Subjects were assessed daily using a spontaneous breathing trial, according to the institution's standard of care. Arterial blood gases (ABG), ventilator settings, methemoglobin, oxygenation index, systolic blood pressure, diastolic blood pressure, Pediatric Risk of Mortality (PRISM) III score, and subject positioning (prone or supine) were performed/recorded at specified times during the study. Selected centers also performed plasma cytokine assays, bronchoalveolar lavage fluid (BALF) assays, and a 6-month follow-up assessment.\n(§2) The following assessments were made at baseline: arterial blood gases, ventilator settings, methemoglobin, prone position, PRISM III score, oxygenation index, systolic and diastolic blood pressure, bronchoalveolar lavage fluid assay and plasma cytokine.\nThe following assessments were made at 4 hours±1 hour after the start of therapy: arterial blood gases, ventilator settings and methemoglobin.\nThe following assessments were made at 12 hours±2 hours after the start of therapy: arterial blood gases and ventilator settings.\n(§3) The following assessments were made at 24 hours±2 hours after the start of therapy: arterial blood gases, ventilator settings, methemoglobin, systolic and diastolic blood pressure and plasma cytokine.\nOxygen status was determined at screening only. Respiratory values in the HFOV category were obtained at baseline, 4 hours, 12 hours, and 24 hours. Respiratory values in the categories conventional mechanical ventilation [CMV] and ABG were obtained at baseline, 4 hours, 12 hours, 24 hours, and at extubation."}, "[2]": {"test_system": "pediatric subjects with acute hypoxemic respiratory failure (AHRF)", "test": "Pediatric AHRF study: vital signs (systolic and diastolic blood pressure)", "assay_type": "in vivo, human", "conditions": "5 ppm", "description": "as §1, §2, §3\nMean systolic and diastolic blood pressure increased slightly from baseline in both groups at 24 hours. Descriptive statistics for systolic and diastolic blood pressure, which were taken both at baseline and at 24 hours, are summarized Table 26."}}, "data": [{"compound": "[N]=O", "note": "[Nitric Oxide, nitric oxide]", "values": [{"measurement": "ABG BE, Mean (SD)", "setting": "[1]; 4 Hours", "result": "0.7 (4.1) mEq/L"}, {"measurement": "ABG BE, Median", "setting": "[1]; 4 Hours", "result": 1.0, "unit": "mEq/L"}, {"measurement": "ABG HCO3, Mean (SD)", "setting": "[1]; 4 Hours", "result": "25.7 (3.9) mEq/L"}, {"measurement": "ABG HCO3, Median", "setting": "[1]; 4 Hours", "result": 25.8, "unit": "mEq/L"}, {"measurement": "ABG PaCO2, Mean (SD)", "setting": "[1]; 4 Hours", "result": "46.0 (18.2) mmHg"}, {"measurement": "ABG PaCO2, Median", "setting": "[1]; 4 Hours", "result": 43.0, "unit": "mmHg"}, {"measurement": "ABG PaO2, Mean (SD)", "setting": "[1]; 4 Hours", "result": "83.2 (22.6) mmHg"}, {"measurement": "ABG PaO2, Median", "setting": "[1]; 4 Hours", "result": 78.5, "unit": "mmHg"}, {"measurement": "ABG SaO2, Mean (SD)", "setting": "[1]; 4 Hours", "result": "95.7 (2.9) %"}, {"measurement": "ABG SaO2, Median", "setting": "[1]; 4 Hours", "result": 95.9, "unit": "%"}, {"measurement": "ABG pH, Mean (SD)", "setting": "[1]; 4 Hours", "result": "7.4 (0.1)"}, {"measurement": "ABG pH, Median", "setting": "[1]; 4 Hours", "result": 7.4}, {"measurement": "ABG BE, Mean (SD)", "setting": "[1]; 12 Hours", "result": "1.1 (4.1) mEq/L"}, {"measurement": "ABG BE, Median", "setting": "[1]; 12 Hours", "result": 2.0, "unit": "mEq/L"}, {"measurement": "ABG HCO2, Mean (SD)", "setting": "[1]; 12 Hours", "result": "26.7 (4.1) mEq/L"}, {"measurement": "ABG HCO2, Median", "setting": "[1]; 12 Hours", "result": 27.0, "unit": "mEq/L"}, {"measurement": "ABG PaCO2, Mean (SD)", "setting": "[1]; 12 Hours", "result": "47.4 (8.3) mmHg"}, {"measurement": "ABG PaCO2, Median", "setting": "[1]; 12 Hours", "result": 48.4, "unit": "mmHg"}, {"measurement": "ABG PaO2, Mean (SD)", "setting": "[1]; 12 Hours", "result": "68.7 (20.9) mmHg"}, {"measurement": "ABG PaO2, Median", "setting": "[1]; 12 Hours", "result": 68.0, "unit": "mmHg"}, {"measurement": "ABG SaO2, Mean (SD)", "setting": "[1]; 12 Hours", "result": "93.1 (3.2) %"}, {"measurement": "ABG SaO2, Median", "setting": "[1]; 12 Hours", "result": 94.0, "unit": "%"}, {"measurement": "ABG pH, Mean (SD)", "setting": "[1]; 12 Hours", "result": "7.4 (0.1)"}, {"measurement": "ABG pH, Median", "setting": "[1]; 12 Hours", "result": 7.4}, {"measurement": "ABG BE, Mean (SD)", "setting": "[1]; 24 Hours", "result": "2.3 (3.8) mEq/L"}, {"measurement": "ABG BE, Median", "setting": "[1]; 24 Hours", "result": 2.8, "unit": "mEq/L"}, {"measurement": "ABG HCO3, Mean (SD)", "setting": "[1]; 24 Hours", "result": "30.6 (14.1) mEq/L"}, {"measurement": "ABG HCO3, Median", "setting": "[1]; 24 Hours", "result": 28.0, "unit": "mEq/L"}, {"measurement": "ABG PaCO2, Mean (SD)", "setting": "[1]; 24 Hours", "result": "47.2 (11.5) mmHg"}, {"measurement": "ABG PaCO2, Median", "setting": "[1]; 24 Hours", "result": 45.4, "unit": "mmHg"}, {"measurement": "ABG PaO2, Mean (SD)", "setting": "[1]; 24 Hours", "result": "71.4 (16.8) mmHg"}, {"measurement": "ABG PaO2, Median", "setting": "[1]; 24 Hours", "result": 69.0, "unit": "mmHg"}, {"measurement": "ABG SaO2, Mean (SD)", "setting": "[1]; 24 Hours", "result": "92.2 (5.4) %"}, {"measurement": "ABG SaO2, Median", "setting": "[1]; 24 Hours", "result": 93.0, "unit": "%"}, {"measurement": "ABG pH, Mean (SD)", "setting": "[1]; 24 Hours", "result": "7.4 (0.1)"}, {"measurement": "ABG pH, Median", "setting": "[1]; 24 Hours", "result": 7.4}, {"measurement": "ABG BE, Mean (SD)", "setting": "[1]; Baseline", "result": "0.2 (5.3) mEq/L"}, {"measurement": "ABG BE, Median", "setting": "[1]; Baseline", "result": 0.4, "unit": "mEq/L"}, {"measurement": "ABG HCO3, Mean (SD)", "setting": "[1]; Baseline", "result": "25.6 (5.0) mEq/L"}, {"measurement": "ABG HCO3, Median", "setting": "[1]; Baseline", "result": 26.0, "unit": "mEq/L"}, {"measurement": "ABG PaCO2, Mean (SD)", "setting": "[1]; Baseline", "result": "45.3 (11.1) mmHg"}, {"measurement": "ABG PaCO2, Median", "setting": "[1]; Baseline", "result": 46.5, "unit": "mmHg"}, {"measurement": "ABG PaO2, Mean (SD)", "setting": "[1]; Baseline", "result": "67.5 (13.1) mmHg"}, {"measurement": "ABG PaO2, Median", "setting": "[1]; Baseline", "result": 63.0, "unit": "mmHg"}, {"measurement": "ABG SaO2, Mean (SD)", "setting": "[1]; Baseline", "result": "92.8 (3.5) %"}, {"measurement": "ABG SaO2, Median", "setting": "[1]; Baseline", "result": 92.0, "unit": "%"}, {"measurement": "ABG pH, Mean (SD)", "setting": "[1]; Baseline", "result": "7.4 (0.1)"}, {"measurement": "ABG pH, Median", "setting": "[1]; Baseline", "result": 7.4}, {"measurement": "ABG BE, Mean (SD)", "setting": "[1]; Extubation Criteria", "result": "5.0 (2.6) mEq/L"}, {"measurement": "ABG BE, Median", "setting": "[1]; Extubation Criteria", "result": 4.0, "unit": "mEq/L"}, {"measurement": "ABG HCO3, Mean (SD)", "setting": "[1]; Extubation Criteria", "result": "30.2 (2.8) mEq/L"}, {"measurement": "ABG HCO3, Median", "setting": "[1]; Extubation Criteria", "result": 31.0, "unit": "mEq/L"}, {"measurement": "ABG PaCO2, Mean (SD)", "setting": "[1]; Extubation Criteria", "result": "47.5 (8.4) mmHg"}, {"measurement": "ABG PaCO2, Median", "setting": "[1]; Extubation Criteria", "result": 44.0, "unit": "mmHg"}, {"measurement": "ABG PaO2, Mean (SD)", "setting": "[1]; Extubation Criteria", "result": "91.8 (42.3) mmHg"}, {"measurement": "ABG PaO2, Median", "setting": "[1]; Extubation Criteria", "result": 78.0, "unit": "mmHg"}, {"measurement": "ABG SaO2, Mean (SD)", "setting": "[1]; Extubation Criteria", "result": "94.6 (5.9) %"}, {"measurement": "ABG SaO2, Median", "setting": "[1]; Extubation Criteria", "result": 96.0, "unit": "%"}, {"measurement": "ABG pH, Mean (SD)", "setting": "[1]; Extubation Criteria", "result": "7.4 (0.1)"}, {"measurement": "ABG pH, Median", "setting": "[1]; Extubation Criteria", "result": 7.4}, {"measurement": "Oxygen Status Oxygen Index 1, Mean (SD)", "setting": "[1]; Screening", "result": "22.2 (8.2)"}, {"measurement": "Oxygen Status Oxygen Index 1, Median", "setting": "[1]; Screening", "result": 21.3}, {"measurement": "Oxygen Status Oxygen Index 2, Mean (SD)", "setting": "[1]; Screening", "result": "22.7 (7.9)"}, {"measurement": "Oxygen Status Oxygen Index 2, Median", "setting": "[1]; Screening", "result": 23.0}, {"measurement": "Diastolic BP, Mean (SD)", "setting": "[2]; 24 Hours", "result": "56.0 (12.7) mmHg"}, {"measurement": "Diastolic BP, Median", "setting": "[2]; 24 Hours", "result": 54.5, "unit": "mmHg"}, {"measurement": "Systolic BP, Mean (SD)", "setting": "[2]; 24 Hours", "result": "97.9 (21.7) mmHg"}, {"measurement": "Systolic BP, Median", "setting": "[2]; 24 Hours", "result": 103.0, "unit": "mmHg"}, {"measurement": "Diastolic BP, Mean (SD)", "setting": "[2]; Baseline", "result": "54.6 (11.6) mmHg"}, {"measurement": "Diastolic BP, Median", "setting": "[2]; Baseline", "result": 55.5, "unit": "mmHg"}, {"measurement": "Systolic BP, Mean (SD)", "setting": "[2]; Baseline", "result": "94.4 (17.4) mmHg"}, {"measurement": "Systolic BP, Median", "setting": "[2]; Baseline", "result": 95.5, "unit": "mmHg"}]}]}
